Data: US10287328B2, “Treatment of diabetes, toll-like receptor 4 modulators and methods for using the same” (KeMyth Biotech Co., Ltd., priority 2016, dated 2019)

Key:
HUVEC = details: treated for 1, 4 and 7 hours (FIG. 16)
[1] = Blood glucose level in C57BL/KsJ-db/db diabetic mice; assay type: in vivo; details: 2 mg/kg/3 days i.p. for 30 days, compared with control group, after week 2
Procedure: Male C57BL/KsJ-db/db mice (diabetic deficiency knockout mice) at 5 weeks of age (23 g) were fed a pelletized commercial chow diet for acclimation from the arrival for 2 weeks. […]. They were given free access to food and distilled water, and the food consumption and body weight gain were measured daily and weekly, respectively. […]; and (2) group 2 served as diabetic mice administered C70PLY4 (2 mg/kg/3 days) in aqueous suspension i.p. for 30 days (C70PLY4). […] The blood was centrifuged at 1000 g for 15 min at 4° C., and plasma and erythrocyte were separated. The livers and adipose tissues were removed, washed, weighted, and frozen at −70° C. until analyzed.
Blood Glucose Test Strips and Blood Glucose Monitoring System were used to determine whole blood glucose levels on a drop of tail blood collected between 10 am and midday. Glucose concentration was determined colorimetrically using a glucose oxidase/peroxidase reagent kit. Samples were incubated with 100 μl of assay reagent at 37° C. for 30 min and measured at 540 nm. Values were expressed in mg/dL.

[2] = tested on: PMNs isolated from TLR4(−/−) mice C3H/HeJ; assay: LPS-induced PMN transendothelial migration, PMNs from TLR4(-/-) C3H/HeJ mice; assay type: cell-based; details: LPS 1 μg/ml, HUVEC monolayer Transwell
Procedure: To obtain mice neutrophils from TLR4-deficient [TLR4(−/−)] C3H/HeJ mice and wild type C3H/HeN mice, inflammation was induced by 0.1 ml of uric acid solution into the peritoneal cavity of the mouse. The uric acid solution (noncrystalline form) was prepared by mixing with saline (10% [wt/vol]) and sonicated for 10 min. Immediately before inoculation, the milky white precipitated uric acid solution was shaken vigorously. Peritoneal exudate cells were harvested 4, 18, or 24 h after injection by two lavages of the peritoneal cavity with 5 ml of cold phosphate-buffered saline (PBS; total volume, 10 ml). Uric acid-induced peritoneal cells (UAPMN) were washed by centrifugation at 200×g for 10 min at 4° C. […] The numbers and populations of peritoneal exudate cells were determined by staining the nuclei with Turk reagent and by cytospin centrifugation followed by May-Grünwald-Giemsa staining, respectively. […] Viability of the isolated neutrophils exceeded 95% as determined by trypan blue exclusion. […]
Neutrophils from human were isolated blood that was drawn in a syringe containing preservative-free heparin (20 U/ml final), and mixed with an equal volume of PBS containing 3% dextran and then incubated for 20 min at room temperature. […] The viability of the isolated neutrophils exceeded 95%, as determined by Trypan blue exclusion. […]

[3] = Serum insulin level (sandwich ELISA) in HFD-induced, STZ-injected type 2 diabetic rats; assay type: in vivo, Sprague-Dawley rats; details: STZ-injected HFD-fed rats, 2 mg/kg/3 days i.p. for 30 days, compared to STZ+vehicle
Procedure: The Sprague-Dawley rats were allocated to two dietary regimens by feeding either normal or HFD ad libitum, for the initial period of 2 weeks. After 2 weeks of dietary manipulation, the group of rats fed HFD were injected intraperitoneally (i.p.) with a low dose of STZ (35 mg/kg b.w.), while the respective control rats were given vehicle citrate buffer (pH 4.5) in a dose volume of 1 mL/kg, i.p. Seven days after STZ injection, rats were screened for blood glucose levels. Overnight fasted (10-12 hours) animals were given glucose (3 g/kg b.w.) by gastric intubation. After 2 hours of oral administration, blood samples were taken from lateral tail vein, left to coagulate and centrifuged; then serum glucose concentration was measured. Rats having serum glucose ≥200 mg/dL after 2 hours of glucose intake were considered diabetic and selected for further pharmacological studies. The rats were allowed to continue to feed on their respective diets until the end of the study (16). […]
The levels of insulin, sICAM-1, sVCAM-1, and E-selectin in serum were determined by using sandwich ELISA (R&D) according to manufacturer's protocols.

QDLTAHFTTSIPLKGNVRNLSVKIRECTGLAWEWWRTVYEKTDLPLVRKRTISIWGTTLYPQVEDKVEND [C70PLY4]
cell morphology of HUVEC (HUVEC): did not affect the cell morphology | blood glucose level [1]: significantly decreases | PMNs migration, TLR4(−/−) mice model (FIG. 10) [2]: this phenomenon did not occur | blood insulin levels [3]: increased blood insulin levels
